Assay results as given in patent US6362208B1, “Anilide compounds and drugs containing the same” (Kowa Company, Ltd., priority 1997, dated 2002).

What was measured:
[1] = target: T1, ACAT, small intestine-derived enzyme (Oryctolagus cuniculus, UniProt G1SFD9); test: ACAT inhibitory action, small intestine-derived enzyme; format: biochemical; settings: rabbit small intestine enzyme solution, 14C-Oleoyl-CoA, 37° C., 3 minutes
T1 sequence (G1SFD9 1-524): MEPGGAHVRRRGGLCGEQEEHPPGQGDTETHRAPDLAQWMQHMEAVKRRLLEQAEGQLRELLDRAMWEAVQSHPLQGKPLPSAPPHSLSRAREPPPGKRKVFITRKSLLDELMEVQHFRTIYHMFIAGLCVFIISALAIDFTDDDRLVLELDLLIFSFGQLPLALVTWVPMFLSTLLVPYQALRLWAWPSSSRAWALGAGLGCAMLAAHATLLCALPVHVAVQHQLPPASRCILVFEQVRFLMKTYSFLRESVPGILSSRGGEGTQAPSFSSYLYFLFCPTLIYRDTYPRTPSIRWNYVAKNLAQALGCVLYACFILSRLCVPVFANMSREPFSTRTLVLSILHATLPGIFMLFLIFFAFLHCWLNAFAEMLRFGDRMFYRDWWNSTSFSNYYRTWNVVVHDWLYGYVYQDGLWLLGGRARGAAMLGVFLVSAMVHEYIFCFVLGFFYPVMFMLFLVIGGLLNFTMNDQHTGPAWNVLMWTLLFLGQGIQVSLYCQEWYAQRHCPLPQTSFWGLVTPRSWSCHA
Method: (§1) In a conventional manner, microsome was prepared from the thoracic aorta of a rabbit fed with a 1% cholesterol diet for 8 weeks, which was then suspended in 0.15 M phosphate buffer, pH 7.4, to prepare an enzyme solution. An enzyme solution was prepared from a rabbit small intestine on normal diet, which was defined as an enzyme solution derived from small intestine.
(§2) 10 μl of an enzyme solution was added to the resulting solution for reaction at 37° C. for […] (small intestine-derived enzyme solution was subjected to reaction for 3 minutes). Subsequently, the reaction was terminated by adding 3 ml of chloroform/methanol (2/1) and 0.5 ml of 0.04 N hydrochloric acid to the reaction solution, to extract lipid. The solvent layer was concentrated and dried, which was then dissolved in hexane and spotted on a TLC plate (manufactured by Merck, Co.). The plate was eluted with hexane:ether:acetic acid (75:25:1). The radioactivity of the resulting cholesterol ester fraction was assayed by BAS 2000 (manufactured by Fuji Photo Film, Co., Ltd.). Compared with the radioactivity of a control prepared by single addition of DMSO, IC50 was determined.

ACAT in J774 cells = target: T2, ACAT in J774 cells (Mus musculus, UniProt Q61263); test: ACAT inhibitory action (anti-foaming action) in J774 cells, cholesterol ester formation; format: cell-based; settings: for IC50: J774 cells, 10 μg/ml 25-OH cholesterol, 18-hr culturing, cholesterol ester per protein, read-out: IC50 (μM) of J774-derived enzyme; for IC50 (HepG2)/IC50 (J774): ratio HepG2 / J774
T2 construct: J774 cells or HepG2 cells were inoculated on a 24-well plate; endogenous in cells; host or cells: J774 cells
T2 sequence (Q61263 1-540): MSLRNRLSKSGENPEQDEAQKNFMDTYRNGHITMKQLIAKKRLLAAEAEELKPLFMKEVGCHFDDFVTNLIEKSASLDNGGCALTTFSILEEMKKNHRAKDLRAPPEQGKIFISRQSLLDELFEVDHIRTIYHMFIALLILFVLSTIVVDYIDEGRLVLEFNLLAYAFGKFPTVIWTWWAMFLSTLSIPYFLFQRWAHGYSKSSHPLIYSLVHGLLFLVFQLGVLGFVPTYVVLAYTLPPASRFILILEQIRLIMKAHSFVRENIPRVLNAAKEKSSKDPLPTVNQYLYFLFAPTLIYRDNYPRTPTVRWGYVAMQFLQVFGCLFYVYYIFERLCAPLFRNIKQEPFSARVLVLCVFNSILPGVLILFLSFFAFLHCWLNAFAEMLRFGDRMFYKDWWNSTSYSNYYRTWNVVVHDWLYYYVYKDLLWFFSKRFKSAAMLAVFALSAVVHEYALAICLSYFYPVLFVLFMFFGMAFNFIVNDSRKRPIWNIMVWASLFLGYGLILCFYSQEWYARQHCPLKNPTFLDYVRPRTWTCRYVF
Method: (§3) J774 cells or HepG2 cells were inoculated on a 24-well plate; J774 cells and HepG2 cells were cultured in DMEM and MEM culture broths (each of the broths containing 10% calf fetus serum), respectively, in a 5% CO2 incubator at 37° C. for 24 hours. […] After discarding the culture media, the resulting cultures were rinsed twice with PBS and extracted with 1.5 ml of hexane:isopropanol (3:2), for concentration and drying. The extracts were dissolved in isopropanol containing 0.2 ml of 10% Triton X-100, to assay total cholesterol (TC) and free cholesterol (FC) by using Cholesterol E Test WAKO (manufactured by Wako Pure Chemicals, Co.) and Free Cholesterol E Test Wako (manufactured by Wako Pure Chemicals, Co.). […] Based on the difference between TC and FC, cholesterol ester was calculated per protein, to determine IC50, compared with the calculated control IC50 value.

ACAT in HepG2 cells = test: ACAT inhibitory action in HepG2 cells, cholesterol ester formation; format: cell-based; settings: 10 μg/ml 25-OH cholesterol, 18-hr culturing, cholesterol ester per protein, read-out: IC50 (μM) of HepG2-derived enzyme
Method: as §3

[2] = target: ACAT, vascular wall-derived enzyme (Oryctolagus cuniculus, UniProt G1SUQ0); test: ACAT inhibitory action, vascular wall-derived enzyme (microsome from thoracic aorta of cholesterol-fed rabbit); format: biochemical; settings: 14C-Oleoyl-CoA, 37° C.
Method: as §1, §2

ACAT, vascular wall-derived enzyme, sequence (G1SUQ0 entry or part of it): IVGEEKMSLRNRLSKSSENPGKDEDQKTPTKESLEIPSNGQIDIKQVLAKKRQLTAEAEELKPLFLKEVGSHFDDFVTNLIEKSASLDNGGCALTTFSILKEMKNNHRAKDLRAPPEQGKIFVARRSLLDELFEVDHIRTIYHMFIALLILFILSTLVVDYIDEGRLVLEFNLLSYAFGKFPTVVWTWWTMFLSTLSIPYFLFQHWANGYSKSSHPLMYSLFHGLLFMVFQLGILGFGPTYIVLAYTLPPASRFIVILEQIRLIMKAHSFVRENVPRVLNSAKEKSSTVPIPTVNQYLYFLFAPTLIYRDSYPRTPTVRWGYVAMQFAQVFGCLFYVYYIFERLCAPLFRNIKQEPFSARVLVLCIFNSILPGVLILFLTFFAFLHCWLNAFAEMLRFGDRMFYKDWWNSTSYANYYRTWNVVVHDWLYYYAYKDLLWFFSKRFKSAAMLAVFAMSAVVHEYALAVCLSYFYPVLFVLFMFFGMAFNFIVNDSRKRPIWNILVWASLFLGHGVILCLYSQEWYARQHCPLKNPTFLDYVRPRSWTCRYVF

| SMILES | IC50 [1] [µM] | IC50 (ACAT in J774 cells) [µM] | IC50 (HepG2)/IC50 (J774) (ACAT in J774 cells) | IC50 (ACAT in HepG2 cells) [µM] | IC50 [2] [µM] | melting point [°C] |
| --- | --- | --- | --- | --- | --- | --- |
| CCCCCCCCCN(CC(C)(C)C)C(=O)N[C@H]1CCCC[C@@H]1OC(=O)CCNC(=O)C1OC(C)(C)OCC1(C)C (stereo partly drawn) [Control 3, N-(2,2,5,5-tetramethyl-1,3-dioxan-4-ylcarbonyl)-β-alanine 2(S)-[N′-(2,2-dimethylpropyl)-N′-nonylureido]-1(S)-cyclohexyl ester, reference compound] | 0.056 | 0.32 | 4.3 |  |  |  |
| CCCCCCCN(CCCCCSc1nc(-c2ccccc2)c(-c2ccccc2)[nH]1)c1nc2ccccc2o1 [Control 4, reference compound] | 0.037 | 0.12 | 6.3 | 0.75 | 0.026 |  |
| CC(C)c1cccc(C(C)C)c1NC(=O)CCCCCCCCSc1nc2cccc(C(F)(F)F)c2o1 [Example 75, 9-(7-trifluoromethylbenzoxazol-2-ylthio)-N-(2,6-diisopropylphenyl)nonanamide] |  | 0.012 | 7.4 | 0.089 |  | 82 to 84 |
| CC(C)c1cccc(C(C)C)c1NC(=O)CCCCCSc1nc2cccc(-c3cc[nH]n3)c2o1 [Example 88, 6-[7-(pyrazol-3-yl)benzoxazol-2-ylthio]-N-(2,6-diisopropylphenyl)hexanamide] |  | 1.64 | 6.1 | 10 |  | 174 to 176 |
